Results: patent EP1501797B1, “3-(SUBSTITUTED AMINO)-1H-INDOLE-2-CARBOXYLIC ACID ESTER AND 3-(SUBSTITUTED AMINO)-BENZO[B]THIOPHENE-2-CARBOXYLIC ACID ESTER DERIVATIVES AS INTERLEUKIN-4 GENE EXPRESSION INHIBITORS” (Aventis Pharmaceuticals Inc., priority 2002, dated 2003)

Assays:
in vitro = conditions: mouse, swiss 3t3 fibroblasts
Description: A third assay utilized in the present invention involves an in vitro cytotoxicity assay. This assay is used to further characterize the compounds in order to assess toxic activities of compounds on contact inhibited, non-dividing 3T3 fibroblasts. Other toxicity assays may be used.
Contact inhibited Swiss 3T3 fibroblasts are purchased from ATCC. The cells are maintained in 1640 RPMI supplemented with 10% fetal bovine serum (Gibco).
On day of assay, cells are detached from flasks by trypsinization, washed in medium and counted. 100 microliters of 2.5 x 10^4 cells per well are plated into Falcon brand 96 well tissue culture plates and cells incubated at 37°C in presence of 5% CO2 for 2 days or until confluent.
[…] All compound dilutions are assayed in triplicate. […] Cells are returned to the incubator for 2 days.
After 2 day incubation, the 3T3 cells are assayed for viability using an MTS Assay Kit (Promega). Media is added to blank wells for background calculations. After 2 hours incubation in kit reagent, the optical density at 490 nm for each compound and control is determined by plate reader.
Results are expressed as percent cytotoxicity, i.e., (mean OD of compound wells - background OD)/ (mean OD of controls - background).
Note that starting concentration of CsA was 1 µM. […]

Human Th2 cells = assay: Human primary Th2 cells, proliferation (viability, MTS assay); type: cell-based; conditions: human primary Th2 cells, anti-CD3 and anti-CD28 (Table 5); read-out: Prolif. IC50
Description: (§1) Briefly, CD4^+CD45RA^+ T cells, isolated from donor peripheral blood mononuclear cells of healthy donors, are educated in the presence of anti-CD3/CD28 antibodies and various growth factors to obtain either a Thl-like or Th2-like phenotypes as determined by the known cytokine profiles of these two cell types.
(§2) Peripheral blood mononuclear cells (PBMC) are prepared from human blood by Ficoll-Hypacque (Pharmacia). The cells are washed two times in Hanks balanced salt solution (HBSS) and counted.
(§3) Naive T cells (CD4^+/CD45RA ) are prepared by negative selection method using following antibodies and Dynabeads: anti-CD8, anti-HLA-DR, (where HLA means human leucocyte antigen) anti-CD14, anti-CD16, anti-CD19, anti-CD45RO antibodies (all from R&D Systems, 1-2 µg/ml) are added to the cells, and the cells are kept on ice for 30 min. The cells are washed two times in HBSS, and goat anti- mouse Ig-beads, (bead:target ratio, 5:1) are added. The cells and beads are slowly rotated at 4°C for 20 min. (following the protocol supplied from Dynal). The supernatant is removed and fresh goat anti-mouse Ig-beads are added to the supernatant, which is slowly rotated at 4°C for 20 min. The cells are counted and phenotypically characterized by flow cytometric analysis.
(§4) CD4^+/CD45RA^+ cells at a density of 10^6/ml in RPMI, is prepared and added to RPMI medium containing 10% Hyclone serum/ glutamine and 1-2 µg/ml anti-CD28 Ab. The cells are split in two aliquots. For Th1 cells: anti-IL-4 Ab (1-2 µg/ml), IFN-γ (1 µg/ml, or 5000 units/ml) are added to the wells. For Th2 cells: IL-4 (100-200 ng/ml), anti-IFN-γ neutralizing Ab (1-2 µg/ml), anti-IL-12 neutralizing Ab (1-2 µg/ml) are added into the wells. […] The cells are transferred to fresh wells and grown in 200 units/ml IL-2 for 2 weeks by feeding them every other day with IL-2 containing medium and splitting the cultures 1:2 or 1:3 as needed. The degree of polarization is determined by intracellular staining of cells with anti-IFN-γ and anti-IL-4 antibodies from Pharmingen, and using flow cytometry from Becton Dickinson (BD), according to manufacturers description. The cells are stimulated with PHA and alloantigens at day 14 and 28 as described below. Eight days after the second allostimulation the cells can be used for compound screening or frozen for future use. For compound testing, large quantities of Th1 and Th2 cells derived from a given donor (NYTh1 and NYTh2) were expanded and frozen as aliquots in liquid nitrogen. The cells are thawed and cultured as and when needed. The thawed cells are stimulated with alloantigen/PHA combination. The cells are used for compound screening after 8-10 days in culture.
(§5) Re-stimulation by allogeneic cells: Human PBMCs, to be used as alloantigens, are isolated from freshly drawn blood by Ficoll separation. […] Cells are counted and diluted to a final concentration of 2 x 10^6/ml in medium containing 10 µg/ml PHA and 200 units/ml IL-2.
(§6) Ninetysix well Falcon tissue culture plates (Fisher Scientific) are coated with 100 microliters per well of 10 µg/ml anti-CD3 (PharMingen) antibody in phosphate buffered saline (PBS) and stored at 4°C one day before the experiment.
(§7) On the day of assay, anti-CD3 antibody coated plates are washed with PBS once to remove all soluble anti-CD3 antibody. […] All compounds and controls are assayed in triplicates.

IL-5 = assay: Human primary Th2 cells, anti-CD3/anti-CD28 activated, IL-5 ELISA; type: cell-based; conditions: human primary Th2 cells, anti-CD3 and anti-CD28 (Table 5)
Description: as §1, §2, §3, §4, §5, §6, §7

IL-13 = assay: Human primary Th2 cells, anti-CD3/anti-CD28 activated, IL-13 ELISA; type: cell-based; conditions: human primary Th2 cells, anti-CD3 and anti-CD28 (Table 5)
Description: as §1, §2, §3, §4, §5, §6, §7

IFN-γ = assay: Human primary Th2 cells, anti-CD3/anti-CD28 activated, IFN-γ ELISA; type: cell-based; conditions: human primary Th2 cells, anti-CD3 and anti-CD28 (Table 5)
Description: as §1, §2, §3, §4, §5, §6, §7

IL-4 = assay: Human primary Th2 cells, anti-CD3/anti-CD28 activated, IL-4 ELISA; type: cell-based; conditions: human primary Th2 cells, anti-CD3 and anti-CD28 (Table 5)
Description: as §1, §2, §3, §4, §5, §6, §7

IC50 (IL-5) [µM] | IC50 (IL-13) [µM] | IC50 (IFN-γ) [µM] | IC50 (IL-4) [µM] | SMILES | viability at 48 h, 0.001 µM (in vitro) [%] | viability at 48 h, 0.003 µM (in vitro) [%] | viability at 48 h, 0.01 µM (in vitro) [%] | viability at 48 h, 0.03 µM (in vitro) [%] | viability at 48 h, 0.1 µM (in vitro) [%] | viability at 48 h, 3 µM (in vitro) [%] | viability at 48 h, 10 µM (in vitro) [%] | IC50 (Human Th2 cells) [µM]
– | – | – | – | CN(Cc1cnc2nc(N)nc(N)c2n1)c1ccc(C(=O)N[C@@H](CCC(=O)O)C(=O)O)cc1 [Methotrexate] | 113 | 105 | 103 | 100 | 98.9 | 93.8 | 92.4 | –
> 10 | > 10 | > 10 | > 10 | CCOC(=O)c1[nH]c2ccccc2c1Nc1ccncc1 [Example 11, 3-(4-pyridinylamino)-1H-indole-2-carboxylic acid, ethyl ester] | – | – | – | – | – | – | – | > 10
> 10 | > 10 | > 10 | 0.9 | CCN(C(=O)c1ccccc1)c1c(C(=O)O)[nH]c2cc(Cl)cc(Cl)c12 [Reference Example 85, 3-((Benzoyl)ethlamino)-4,6-dichloro-1H-indole-2-carboxylic acid] | – | – | – | – | – | – | – | > 10
> 10 | > 10 | > 10 | 0.3 | O=C(Nc1c(C(=O)O)[nH]c2cc(Cl)ccc12)c1ccccc1 [Reference Example 78, 3-((Benzoyl)amino)-6-chloro-1H-indole-2-carboxylic acid] | – | – | – | – | – | – | – | > 10
> 10 | > 10 | > 10 | 1 | CCOC(=O)c1[nH]c2cc(Cl)cc(Cl)c2c1NS(=O)(=O)c1ccccc1 [Example 90, 3-((Phenylsulfonyl)amino)-4,6-dichloro-1H-indole-2-carboxylic acid ethyl ester] | – | – | – | – | – | – | – | > 10
> 10 | > 10 | > 10 | 0.45 | CN(c1c(C(=O)O)[nH]c2cc(Cl)cc(Cl)c12)S(=O)(=O)c1ccccc1 [Reference Example 92, 3-((Phenylsulfonyl)methylamino)-4,6-dichloro-1H-indole-2-carboxylic acid] | – | – | – | – | – | – | – | > 10
> 10 | > 10 | > 10 | 2.5 | CN(C(=O)c1cccc(F)c1)c1c(C(=O)O)[nH]c2cc(Cl)cc(Cl)c12 [Reference Example 88, 3-((3-Fluorobenzoyl)methylamino)-4,6-dichloro-1H-indole-2-carboxylic acid] | – | – | – | – | – | – | – | > 10
> 10 | > 10 | > 10 | 2 | CCOC(=O)c1c(Nc2ccncc2)c2ccccc2n1C [Reference Example 24A, 1-Methyl-3-(4-pyridinylamino)-1H-indole-2-carboxylic ethyl ester] | – | – | – | – | – | – | – | > 10
8 | > 10 | > 10 | 2.5 | CCOC(=O)c1[nH]c2cc(Cl)cc(Cl)c2c1N(Cc1ccccc1)C(=O)c1ccccc1 [Example 89, 3-((Benzoyl)benzylamino)-4,6-dichloro-1H-indole-2-carboxylic acid ethyl ester] | – | – | – | – | – | – | – | 4
> 10 | > 10 | > 10 | 4 | CN(C(=O)CCc1ccccc1)c1c(C(=O)O)[nH]c2cc(Cl)ccc12 [Reference Example 76, 3-((3-Phenylpropanoyl)methylamino)-1H-6-chloro-indole-2-carboxylic acid] | – | – | – | – | – | – | – | > 10
2 | > 10 | > 10 | 0.6 | O=C(Nc1c(C(=O)O)[nH]c2cc(Cl)cc(Cl)c12)c1ccccc1Cc1ccccc1 [Reference Example 87, 3-((2-Benzylbenzoyl)amino)-4,6-dichloro-1H-indole-2-carboxylic acid] | – | – | – | – | – | – | – | > 10
> 10 | > 10 | > 10 | 1 | CN(C(=O)c1ccccc1)c1c(C(=O)O)[nH]c2cc(F)ccc12 [Reference Example 86, 3-((Benzoyl)methylamino)-6-fluoro-1H-indole-2-carboxylic acid] | – | – | – | – | – | – | – | > 10
> 10 | > 10 | > 10 | 5 | CN(C)CCOC(=O)c1[nH]c2cc(Cl)ccc2c1NC(=O)c1ccccc1 [Example 79, 3-((Benzoyl)amino)-6-chloro-1H-indole-2-carboxylic acid 2-dimethylamino-ethyl ester] | – | – | – | – | – | – | – | > 10
> 10 | > 10 | > 10 | 3.6 | CN(C(=O)c1ccccc1)c1c(C(=O)O)[nH]c2cc(Cl)cc(Cl)c12 [Reference Example 77, 3-((Benzoyl)methylamino)-4,6-dichloro-1H-indole-2-carboxylic acid] | – | – | – | – | – | – | – | > 10
> 10 | > 10 | > 10 | 6 | CN(C(=O)c1ccc(Cl)cc1)c1c(C(=O)O)[nH]c2cc(Cl)cc(Cl)c12 [Reference Example 80, 3-((4-chlorobenzoyl)methylamino)-4,6-dichloro-1H-indole-2-carboxylic acid] | – | – | – | – | – | – | – | > 10
> 10 | > 10 | > 10 | 1 | O=C(O)c1[nH]c2cc(Cl)cc(Cl)c2c1NS(=O)(=O)c1ccccc1 [Reference Example 91, 3-((Phenylsulfonyl)amino)-4,6-dichloro-1H-indole-2-carboxylic acid] | – | – | – | – | – | – | – | > 10
> 10 | > 10 | > 10 | 1 | CN(C(=O)c1ccccc1)c1c(C(=O)O)[nH]c2cc(Cl)c(Cl)cc12 [Reference Example 84, 3-((Benzoyl)methylamino)-5,6-dichloro-1H-indole-2-carboxylic acid] | – | – | – | – | – | – | – | > 10
7 | > 10 | 9.5 | 6 | O=C(O)c1[nH]c2cc(Cl)cc(Cl)c2c1N(Cc1ccccc1)C(=O)c1ccccc1 [Reference Example 81, 3-((Benzoyl)benzylamino)-4,6-dichloro-1H-indole-2-carboxylic acid] | – | – | – | – | – | – | – | > 10
– | – | – | – | C[C@@H]1C[C@H]2[C@@H]3CCC4=CC(=O)C=C[C@]4(C)[C@@]3(F)[C@@H](O)C[C@]2(C)[C@@]1(O)C(=O)CO [Dexamethasone] | 100 | 77.9 | 71.6 | 67.8 | 64.2 | 60.7 | 60.5 | –
